Data: patent publication US20260028365A1 (BIOGEN MA INC., priority 2022, published 2026)
Where two headings read alike, the source gives them in different places.

What was measured:
[1] = target: JH2 domain of human Tyk2 (Homo sapiens (Human), UniProt P29597); test: JH2 Biochemical Assay (TR-FRET probe displacement); format: binding
[2] = target: Tyk2 (Homo sapiens (Human), UniProt P29597); test: pSTAT4 Cell Assay (MSD, NK92 cells); format: cell-based
[3] = target: JAK2 (Homo sapiens (Human), UniProt O60674); test: pSTAT5 Cell Assay (MSD, TF1 cells); format: cell-based
Experimental: Compounds of the disclosure were assessed for their ability to inhibit the JAK2 kinase activity on STAT5 utilizing an MSD-platform plate-based assay format. TF1 cells natively expressing STAT5 and JAK2 were serum-starved to reduce background phosphorylation levels, then cells were treated with compounds of disclosure for 1 hour with a 10-point four-fold dilution series starting at 10 μM. Cells were then stimulated with 30 ng/mL IL-3 for 15 minutes. Cells were then lysed and pSTAT5 levels were quantitated using an MSD plate-based assay with anti-STAT5 antibodies. The data were normalized and the percent activity versus log concentration of compound was fitted with a 4-parameter logistic model to generate a curve and an IC50 value.

[4] = target: JAK1 (Homo sapiens (Human), UniProt P23458); test: pSTAT3 Cell Assay (MSD, TF1 cells); format: cell-based
Experimental: The inhibitory potency of compounds of the disclosure against the JAK1 kinase activity on STAT3 was evaluated using an MSD-platform plate-based assay format. TF1 cells natively expressing STAT3 and JAK1 were serum-starved to reduce background phosphorylation levels, then cells were treated with compounds of the disclosure for 1 hour with a 10-point four-fold dilution series starting at 10 μM. Cells were then stimulated with 30 ng/mL interleukin 6 (IL-6) for 15 minutes. Cells were lysed and pSTAT3 levels were quantitated using an MSD plate-based assay with anti-STAT3 antibodies. The data were normalized and the percent activity versus log concentration of compound was fitted with a 4-parameter logistic model to generate IC50 curves.

[5] = TR-FRET probe displacement, JH2 domain of human Tyk2
[6] = JH2 domain of human Tyk2, TR-FRET probe displacement
[7] = TR-FRET probe displacement, JH2 domain

Sequence of JAK1 (P23458 whole entry): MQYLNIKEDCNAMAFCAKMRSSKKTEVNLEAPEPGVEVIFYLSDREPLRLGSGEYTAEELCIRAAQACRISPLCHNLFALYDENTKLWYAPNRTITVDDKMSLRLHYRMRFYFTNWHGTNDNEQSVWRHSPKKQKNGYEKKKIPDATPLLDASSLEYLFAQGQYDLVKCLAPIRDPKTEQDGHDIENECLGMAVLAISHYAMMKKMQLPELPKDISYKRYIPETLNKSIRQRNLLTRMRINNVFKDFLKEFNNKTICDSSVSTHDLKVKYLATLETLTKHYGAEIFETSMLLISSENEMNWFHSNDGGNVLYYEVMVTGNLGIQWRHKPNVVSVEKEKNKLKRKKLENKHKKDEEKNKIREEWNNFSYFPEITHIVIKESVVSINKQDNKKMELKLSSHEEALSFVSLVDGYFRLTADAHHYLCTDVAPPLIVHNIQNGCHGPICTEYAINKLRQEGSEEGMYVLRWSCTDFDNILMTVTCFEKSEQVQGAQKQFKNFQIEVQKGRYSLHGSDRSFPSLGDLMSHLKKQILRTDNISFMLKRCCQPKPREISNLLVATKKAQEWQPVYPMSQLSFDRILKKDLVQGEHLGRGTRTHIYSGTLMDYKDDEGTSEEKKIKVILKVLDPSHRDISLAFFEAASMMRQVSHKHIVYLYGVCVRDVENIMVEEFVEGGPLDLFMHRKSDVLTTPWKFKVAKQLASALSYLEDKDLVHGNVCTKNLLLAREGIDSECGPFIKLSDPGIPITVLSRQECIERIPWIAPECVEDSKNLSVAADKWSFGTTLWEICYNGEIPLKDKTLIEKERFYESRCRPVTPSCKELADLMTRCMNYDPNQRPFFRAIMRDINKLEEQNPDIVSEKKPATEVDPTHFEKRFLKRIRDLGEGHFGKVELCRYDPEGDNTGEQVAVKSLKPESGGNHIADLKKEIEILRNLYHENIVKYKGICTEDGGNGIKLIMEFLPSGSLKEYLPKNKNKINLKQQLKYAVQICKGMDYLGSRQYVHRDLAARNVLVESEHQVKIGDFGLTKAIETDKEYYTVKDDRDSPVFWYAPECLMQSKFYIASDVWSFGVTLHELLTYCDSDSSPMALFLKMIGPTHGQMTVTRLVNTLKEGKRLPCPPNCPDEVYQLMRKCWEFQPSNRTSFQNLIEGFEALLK
Sequence of JAK2 (O60674 whole entry): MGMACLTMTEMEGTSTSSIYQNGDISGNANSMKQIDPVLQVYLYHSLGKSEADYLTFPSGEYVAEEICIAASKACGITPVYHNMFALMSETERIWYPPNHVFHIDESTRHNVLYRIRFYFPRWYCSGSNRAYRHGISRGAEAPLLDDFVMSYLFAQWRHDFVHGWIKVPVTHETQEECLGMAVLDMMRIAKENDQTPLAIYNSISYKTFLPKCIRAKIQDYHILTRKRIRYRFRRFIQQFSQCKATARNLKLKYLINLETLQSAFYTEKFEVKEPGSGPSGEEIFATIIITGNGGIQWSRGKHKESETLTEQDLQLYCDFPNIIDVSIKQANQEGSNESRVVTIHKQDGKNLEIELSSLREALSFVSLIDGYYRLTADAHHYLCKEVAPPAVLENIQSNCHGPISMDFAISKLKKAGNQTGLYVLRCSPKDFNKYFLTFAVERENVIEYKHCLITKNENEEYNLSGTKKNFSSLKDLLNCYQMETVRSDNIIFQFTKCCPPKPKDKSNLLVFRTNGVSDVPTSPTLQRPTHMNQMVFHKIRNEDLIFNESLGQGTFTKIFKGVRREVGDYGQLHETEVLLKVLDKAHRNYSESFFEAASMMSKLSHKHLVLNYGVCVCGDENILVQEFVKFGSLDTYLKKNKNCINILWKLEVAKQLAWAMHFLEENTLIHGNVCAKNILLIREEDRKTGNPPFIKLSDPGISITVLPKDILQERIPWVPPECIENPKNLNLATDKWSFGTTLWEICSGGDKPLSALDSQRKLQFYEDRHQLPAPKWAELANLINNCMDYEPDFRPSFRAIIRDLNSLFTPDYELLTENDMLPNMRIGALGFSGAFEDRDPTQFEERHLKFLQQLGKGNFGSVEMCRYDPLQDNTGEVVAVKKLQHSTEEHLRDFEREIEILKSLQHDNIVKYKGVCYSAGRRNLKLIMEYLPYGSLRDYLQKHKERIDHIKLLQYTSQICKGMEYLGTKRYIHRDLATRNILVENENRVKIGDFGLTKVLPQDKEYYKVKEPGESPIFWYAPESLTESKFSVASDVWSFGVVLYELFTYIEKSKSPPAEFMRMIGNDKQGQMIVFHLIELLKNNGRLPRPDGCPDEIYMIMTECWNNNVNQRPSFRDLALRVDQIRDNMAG
Sequence of Tyk2 (P29597 whole entry): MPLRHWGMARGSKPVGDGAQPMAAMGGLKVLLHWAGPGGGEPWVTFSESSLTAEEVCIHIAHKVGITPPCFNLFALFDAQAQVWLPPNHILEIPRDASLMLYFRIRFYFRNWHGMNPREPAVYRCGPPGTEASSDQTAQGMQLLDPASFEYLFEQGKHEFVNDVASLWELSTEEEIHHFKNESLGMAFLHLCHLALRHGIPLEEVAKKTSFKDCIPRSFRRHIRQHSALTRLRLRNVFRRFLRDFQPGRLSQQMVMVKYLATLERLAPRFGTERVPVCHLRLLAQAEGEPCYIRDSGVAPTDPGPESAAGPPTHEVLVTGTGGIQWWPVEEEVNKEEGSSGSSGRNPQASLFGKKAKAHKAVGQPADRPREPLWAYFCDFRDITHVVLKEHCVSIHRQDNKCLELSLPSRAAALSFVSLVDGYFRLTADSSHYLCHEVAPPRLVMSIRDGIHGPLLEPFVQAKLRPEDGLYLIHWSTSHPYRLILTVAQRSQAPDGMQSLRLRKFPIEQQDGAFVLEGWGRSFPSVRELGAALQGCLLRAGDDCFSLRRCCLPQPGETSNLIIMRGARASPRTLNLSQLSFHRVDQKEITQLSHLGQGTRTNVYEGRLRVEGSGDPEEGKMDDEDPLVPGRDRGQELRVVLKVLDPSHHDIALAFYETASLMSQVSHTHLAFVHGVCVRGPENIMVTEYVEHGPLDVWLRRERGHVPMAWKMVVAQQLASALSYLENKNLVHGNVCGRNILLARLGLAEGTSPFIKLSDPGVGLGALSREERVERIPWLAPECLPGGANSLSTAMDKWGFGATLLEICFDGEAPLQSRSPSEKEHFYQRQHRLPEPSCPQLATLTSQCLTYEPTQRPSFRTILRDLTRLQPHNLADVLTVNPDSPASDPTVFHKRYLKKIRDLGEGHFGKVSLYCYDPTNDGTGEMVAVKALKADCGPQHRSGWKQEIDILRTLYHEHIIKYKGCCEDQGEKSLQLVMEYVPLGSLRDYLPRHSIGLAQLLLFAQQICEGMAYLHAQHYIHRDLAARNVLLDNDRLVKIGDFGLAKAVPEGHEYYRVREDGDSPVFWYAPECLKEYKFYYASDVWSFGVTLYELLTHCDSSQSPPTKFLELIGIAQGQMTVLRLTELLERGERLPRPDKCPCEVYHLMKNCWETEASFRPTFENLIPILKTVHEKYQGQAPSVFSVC
Sequence of JH2 domain of human Tyk2 (P29597 575-876): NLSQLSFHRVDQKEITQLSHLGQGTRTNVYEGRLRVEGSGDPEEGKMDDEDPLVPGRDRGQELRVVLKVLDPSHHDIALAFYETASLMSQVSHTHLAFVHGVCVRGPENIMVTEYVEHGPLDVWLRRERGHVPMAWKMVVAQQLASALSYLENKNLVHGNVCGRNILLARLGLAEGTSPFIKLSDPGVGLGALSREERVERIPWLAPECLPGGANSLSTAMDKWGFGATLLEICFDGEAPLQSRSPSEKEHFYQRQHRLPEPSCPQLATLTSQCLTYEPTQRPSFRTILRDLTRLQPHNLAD

Structure (SMILES) | IC50 [1, 5] | IC50 ([2]; MSD) | IC50 ([3]; IL-3 stimulation, MSD) | IC50 ([4]; IL-6 stimulation, MSD) | IC50 [1, 6] | IC50 ([3]; IL-3 stimulated, MSD) | IC50 ([4]; IL-6 stimulated, MSD) | IC50 [1, 7] | IC50 [2] | IC50 ([3]; IL-3 stimulated) | IC50 ([4]; IL-6 stimulated)
[2H]C([2H])([2H])C([2H])([2H])Oc1cnc(NC(C)=O)cc1Nc1cc(C(C)C)nc(C(C)(F)F)n1 [Example 362, N-(4-((2-(1,1-difluoroethyl)-6-isopropylpyrimidin-4-yl)amino)-5-(ethoxy-d5)pyridin-2-yl)acetamide] | ≤ 10 nM | 10 to 100 nM | ≥ 1000 nM | ≥ 1000 nM |  |  |  |  |  |  | 
CCOc1cnc(NC(C)=O)cc1Nc1cc(-c2cnn(C)c2)nc(C(C)(F)F)n1 [Example 302, N-(4-((2-(1,1-difluoroethyl)-6-(1-methyl-1H-pyrazol-4-yl)pyrimidin-4-yl)amino)-5-ethoxypyridin-2-yl)acetamide] | ≤ 10 nM | 10 to 100 nM | ≥ 1000 nM | ≥ 1000 nM |  |  |  |  |  |  | 
CCOc1cnc(NC(C)=O)cc1Nc1cc(O[C@H]2C[C@H](OC)C2)nc(C(C)(F)F)n1 [Example 16, N-(4-((2-(1,1-difluoroethyl)-6-((1r,3r)-3-methoxycyclobutoxy)pyrimidin-4-yl)amino)-5-ethoxypyridin-2-yl)acetamide] | ≤ 10 nM | ≤ 10 nM | ≥ 1000 nM | ≥ 1000 nM |  |  |  |  |  |  | 
CC(=O)Nc1cc(Nc2ccnc(C(C)(C)F)n2)c(-c2ccnc(C)n2)cn1 [Example 175, N-(4-((2-(2-fluoropropan-2-yl)pyrimidin-4-yl)amino)-5-(2-methylpyrimidin-4-yl)pyridin-2-yl)acetamide] | ≤ 10 nM | ≤ 10 nM | ≥ 1000 nM | ≥ 1000 nM |  |  |  |  |  |  | 
CCC(=O)Nc1cc(Nc2cc(CC)nc(C(C)(F)F)n2)c(OCCOC)cn1 [Example 88, N-(4-((2-(1,1-difluoroethyl)-6-ethylpyrimidin-4-yl)amino)-5-(2-methoxyethoxy)pyridin-2-yl)propionamide] | ≤ 10 nM | ≤ 10 nM | ≥ 1000 nM | ≥ 1000 nM |  |  |  |  |  |  | 
CC(=O)Nc1cc(Nc2cc(C)nc(C(C)(F)F)n2)c(-c2cnc(F)cn2)cn1 [Example 598, N-(4-((2-(1,1-difluoroethyl)-6-methylpyrimidin-4-yl)amino)-5-(5-fluoropyrazin-2-yl)pyridin-2-yl)acetamide] |  | 10 to 100 nM |  |  | ≤ 10 nM | ≥ 1000 nM | ≥ 1000 nM |  |  |  | 
CC(=O)Nc1cc(Nc2ccnc(C(C)(F)F)n2)c(-c2ncc(OC(F)F)cn2)cn1 [Example 825, N-(4-((2-(1,1-difluoroethyl)pyrimidin-4-yl)amino)-5-(5-(difluoromethoxy)pyrimidin-2-yl)pyridin-2-yl)acetamide] |  |  |  |  |  |  |  | ≤ 10 nM | 10 to 100 nM | ≥ 1000 nM | ≥ 1000 nM
CC(=O)Nc1cc(Nc2cc(C)nc(C(C)(F)F)n2)c(-c2cnccn2)cn1 [Example 620, N-(4-((2-(1,1-difluoroethyl)-6-methylpyrimidin-4-yl)amino)-5-(pyrazin-2-yl)pyridin-2-yl)acetamide] |  | 10 to 100 nM |  |  | ≤ 10 nM | ≥ 1000 nM | ≥ 1000 nM |  |  |  | 
COc1cnc(NC(C)=O)cc1Nc1cc(C(C)C)nc(C(C)(F)F)n1 [Example 52, N-(4-((2-(1,1-difluoroethyl)-6-isopropylpyrimidin-4-yl)amino)-5-methoxypyridin-2-yl)acetamide] | ≤ 10 nM | 10 to 100 nM | ≥ 1000 nM | ≥ 1000 nM |  |  |  |  |  |  | 
COCCOc1cnc(NC(C)=O)cc1Nc1cncc(C(C)(F)F)n1 [Example 67, N-(4-((6-(1,1-difluoroethyl)pyrazin-2-yl)amino)-5-(2-methoxyethoxy)pyridin-2-yl)acetamide] | ≤ 10 nM | 10 to 100 nM | ≥ 1000 nM | ≥ 1000 nM |  |  |  |  |  |  | 
CC(=O)Nc1cc(Nc2cc(C)nc(C(C)(F)F)n2)c(OCC2COC(C)(C)CO2)cn1 (centres unmarked) [Example 430, N-(4-((2-(1,1-difluoroethyl)-6-methylpyrimidin-4-yl)amino)-5-((5,5-dimethyl-1,4-dioxan-2-yl)methoxy)pyridin-2-yl)acetamide] |  | 10 to 100 nM |  |  | ≤ 10 nM | ≥ 1000 nM | ≥ 1000 nM |  |  |  | 
CC(=O)Nc1cc(Nc2cc(C)nc(C(C)(F)F)n2)c(-c2ncc(OC(F)F)cn2)cn1 [Example 660, N-(4-((2-(1,1-difluoroethyl)-6-methylpyrimidin-4-yl)amino)-5-(5-(difluoromethoxy)pyrimidin-2-yl)pyridin-2-yl)acetamide] |  | ≤ 10 nM |  |  | ≤ 10 nM | ≥ 1000 nM | ≥ 1000 nM |  |  |  | 
COc1ccc(-c2cnc(NC(C)=O)cc2Nc2ccnc(C(C)(C)F)n2)nn1 [Example 835, N-(4-((2-(2-fluoropropan-2-yl)pyrimidin-4-yl)amino)-5-(6-methoxypyridazin-3-yl)pyridin-2-yl)acetamide] |  |  |  |  |  |  |  | ≤ 10 nM | ≤ 10 nM | ≥ 1000 nM | ≥ 1000 nM
CC(=O)Nc1cc(Nc2ccnc(C(C)(F)F)n2)c(-c2ccc(OC(F)F)cn2)cn1 [Example 826, N-(4′-((2-(1,1-difluoroethyl)pyrimidin-4-yl)amino)-5-(difluoromethoxy)-[2,3′-bipyridin]-6′-yl)acetamide] |  |  |  |  |  |  |  | ≤ 10 nM | ≤ 10 nM | ≥ 1000 nM | ≥ 1000 nM
CCOc1cnc(NC(C)=O)cc1Nc1cc(O[C@H]2C[C@H](OC)C2)cc(C(C)(F)F)n1 [Example 14, N-(4-((6-(1,1-difluoroethyl)-4-((1r,3r)-3-methoxycyclobutoxy)pyridin-2-yl)amino)-5-ethoxypyridin-2-yl)acetamide] | ≤ 10 nM | 10 to 100 nM | ≥ 1000 nM | ≥ 1000 nM |  |  |  |  |  |  | 
CC(=O)Nc1cc(Nc2cc(C)nc(C(C)(F)F)n2)c(OCc2ccccn2)cn1 [Example 101, N-(4-((2-(1,1-difluoroethyl)-6-methylpyrimidin-4-yl)amino)-5-(pyridin-2-ylmethoxy)pyridin-2-yl)acetamide] | ≤ 10 nM | 10 to 100 nM | ≥ 1000 nM | ≥ 1000 nM |  |  |  |  |  |  | 
COCCOc1cnc(NC(C)=O)cc1Nc1cc(C)nc(C(C)(F)F)n1 [Example 22, N-(4-((2-(1,1-difluoroethyl)-6-methylpyrimidin-4-yl)amino)-5-(2-methoxyethoxy)pyridin-2-yl)acetamide] | ≤ 10 nM | ≤ 10 nM | ≥ 1000 nM | ≥ 1000 nM |  |  |  |  |  |  | 
CC(=O)Nc1cc(Nc2cc(C)nc(C(C)(F)F)n2)c(-c2nc3c(s2)CCN(C)C3)cn1 [Example 237, N-(4-((2-(1,1-difluoroethyl)-6-methylpyrimidin-4-yl)amino)-5-(5-methyl-4,5,6,7-tetrahydrothiazolo[4,5-c]pyridin-2-yl)pyridin-2-yl)acetamide] | ≤ 10 nM | ≤ 10 nM | ≥ 1000 nM | ≥ 1000 nM |  |  |  |  |  |  | 
CCc1cc(Nc2cc(NC(C)=O)ncc2-c2coc(C)n2)nc(C(C)(F)F)n1 [Example 584, N-(4-((2-(1,1-difluoroethyl)-6-ethylpyrimidin-4-yl)amino)-5-(2-methyloxazol-4-yl)pyridin-2-yl)acetamide] |  | ≤ 10 nM |  |  | ≤ 10 nM | ≥ 1000 nM | ≥ 1000 nM |  |  |  | 
CC(=O)Nc1cc(Nc2cc(C)nc(C(C)(F)F)n2)c(-c2cc(C(F)F)ncn2)cn1 [Example 246, N-(4-((2-(1,1-difluoroethyl)-6-methylpyrimidin-4-yl)amino)-5-(6-(difluoromethyl)pyrimidin-4-yl)pyridin-2-yl)acetamide] | ≤ 10 nM | 10 to 100 nM | ≥ 1000 nM | ≥ 1000 nM |  |  |  |  |  |  | 
